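Method: 48-hour compound exposure of cells in 96-well plates, five concentrations, linear interpolation of endpoints. GI50: concentration for 50% inhibition of growth.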 Active and inactive are the calls of the source. Rule as the data show it: active = GI50 up to about 1.1 µM and inactive = higher.
Columns and labels:
Test in all cases: growth of human tumour cells (NCI), 48 h
SNB-75 = system: SNB-75
M14 = system: M14
T47D = system: T47D
786-0 = system: 786-0
U-251 = system: U-251
NCI-H23 = system: NCI-H23
Malme-3M = system: Malme-3M
A549 = system: A549
SF-295 = system: SF-295
DU-145 = system: DU-145
IGROV-1 = system: IGROV-1
HL-60 = system: HL-60
Hs-578T = system: Hs-578T
UACC-257 = system: UACC-257
PC-3 = system: PC-3
CCRF-CEM = system: CCRF-CEM
BT-549 = system: BT-549
CAKI-1 = system: CAKI-1
K562 = system: K562
SK-MEL-5 = system: SK-MEL-5
MCF7 = system: MCF7
NCI-H226 = system: NCI-H226
OVCAR-4 = system: OVCAR-4
SW-620 = system: SW-620
EKVX = system: EKVX
OVCAR-8 = system: OVCAR-8
HCT-116 = system: HCT-116
KM12 = system: KM12
UACC-62 = system: UACC-62
HT-29 = system: HT-29
HCC 2998 = system: HCC 2998
COLO 205 = system: COLO 205
NCI/ADR-RES = system: NCI/ADR-RES
SN12C = system: SN12C
RPMI-8226 = system: RPMI-8226
MDA-MB-435 = system: MDA-MB-435
SK-OV-3 = system: SK-OV-3
HOP-92 = system: HOP-92
SF-539 = system: SF-539
SK-MEL-2 = system: SK-MEL-2
TK-10 = system: TK-10
SF-268 = system: SF-268
MDA-N = system: MDA-N
MDA-MB-231 = system: MDA-MB-231
MOLT-4 = system: MOLT-4
NCI-H460 = system: NCI-H460
SK-MEL-28 = system: SK-MEL-28
OVCAR-3 = system: OVCAR-3
SNB-19 = system: SNB-19
UO-31 = system: UO-31
RXF 393 = system: RXF 393
OVCAR-5 = system: OVCAR-5
SR = system: SR
NCI-H522 = system: NCI-H522
HOP-62 = system: HOP-62
LOX IMVI = system: LOX IMVI
ACHN = system: ACHN
HCT-15 = system: HCT-15
A498 = system: A498

COc1cc(C2SCC(=O)N2c2ccc(Cl)cc2)cc(I)c1O (configuration not stated)
GI50 (SNB-75): > 100 µM (inactive) | GI50 (M14): 4.86 µM (inactive) | GI50 (T47D): 5.45 µM (inactive) | GI50 (786-0): > 100 µM (inactive) | GI50 (U-251): > 100 µM (inactive) | GI50 (NCI-H23): 25.5 µM (inactive) | GI50 (Malme-3M): > 100 µM (inactive) | GI50 (A549): 46.7 µM (inactive) | GI50 (SF-295): 4.72 µM (inactive) | GI50 (DU-145): > 100 µM (inactive) | GI50 (IGROV-1): > 100 µM (inactive) | GI50 (HL-60): 15.7 µM (inactive) | GI50 (Hs-578T): 97.1 µM (inactive) | GI50 (UACC-257): 11.8 µM (inactive) | GI50 (PC-3): > 100 µM (inactive) | GI50 (CCRF-CEM): 46.1 µM (inactive) | GI50 (BT-549): 48.8 µM (inactive) | GI50 (CAKI-1): 6.43 µM (inactive) | GI50 (K562): 0.501 µM (active) | GI50 (SK-MEL-5): 6.52 µM (inactive) | GI50 (MCF7): 4.75 µM (inactive) | GI50 (NCI-H226): > 90.2 µM (inactive) | GI50 (OVCAR-4): 3.37 µM (inactive) | GI50 (SW-620): > 100 µM (inactive) | GI50 (EKVX): 8.13 µM (inactive) | GI50 (OVCAR-8): > 100 µM (inactive) | GI50 (HCT-116): 18.5 µM (inactive) | GI50 (KM12): 7.01 µM (inactive) | GI50 (UACC-62): 0.305 µM (active) | GI50 (HT-29): > 100 µM (inactive) | GI50 (HCC 2998): 65.2 µM (inactive) | GI50 (COLO 205): 2.64 µM (inactive) | GI50 (NCI/ADR-RES): > 69 µM (inactive) | GI50 (SN12C): > 100 µM (inactive) | GI50 (RPMI-8226): 5.85 µM (inactive) | GI50 (MDA-MB-435): 1.56 µM (inactive) | GI50 (SK-OV-3): > 100 µM (inactive) | GI50 (HOP-92): 57 µM (inactive) | GI50 (SF-539): > 35.9 µM (inactive) | GI50 (SK-MEL-2): 23.9 µM (inactive) | GI50 (TK-10): > 94.6 µM (inactive) | GI50 (SF-268): > 86.7 µM (inactive) | GI50 (MDA-N): 3.37 µM (inactive) | GI50 (MDA-MB-231): > 100 µM (inactive) | GI50 (MOLT-4): 21.9 µM (inactive) | GI50 (NCI-H460): 2.74 µM (inactive) | GI50 (SK-MEL-28): 22 µM (inactive) | GI50 (OVCAR-3): 33.8 µM (inactive) | GI50 (SNB-19): > 100 µM (inactive) | GI50 (UO-31): > 100 µM (inactive) | GI50 (RXF 393): > 100 µM (inactive) | GI50 (OVCAR-5): > 100 µM (inactive) | GI50 (SR): 3.53 µM (inactive) | GI50 (NCI-H522): 55.8 µM (inactive)

COc1ccc(/N=N/c2c(C)c(C#N)c(=S)n(C3OC(COC(C)=O)C(OC(C)=O)C(OC(C)=O)C3OC(C)=O)c2C)cc1 (configuration not stated)
GI50 (SNB-75): 16.1 µM (inactive) | GI50 (M14): 90.6 µM (inactive) | GI50 (T47D): > 100 µM (inactive) | GI50 (786-0): 22.5 µM (inactive) | GI50 (U-251): 8.09 µM (inactive) | GI50 (NCI-H23): > 100 µM (inactive) | GI50 (Malme-3M): > 100 µM (inactive) | GI50 (A549): > 100 µM (inactive) | GI50 (HOP-62): 64.3 µM (inactive) | GI50 (SF-295): 57.5 µM (inactive) | GI50 (DU-145): > 100 µM (inactive) | GI50 (IGROV-1): > 100 µM (inactive) | GI50 (HL-60): > 100 µM (inactive) | GI50 (Hs-578T): 23.3 µM (inactive) | GI50 (UACC-257): > 100 µM (inactive) | GI50 (PC-3): > 100 µM (inactive) | GI50 (CCRF-CEM): > 100 µM (inactive) | GI50 (BT-549): > 100 µM (inactive) | GI50 (CAKI-1): > 100 µM (inactive) | GI50 (K562): > 100 µM (inactive) | GI50 (SK-MEL-5): > 100 µM (inactive) | GI50 (MCF7): > 100 µM (inactive) | GI50 (OVCAR-4): > 100 µM (inactive) | GI50 (LOX IMVI): > 100 µM (inactive) | GI50 (SW-620): > 100 µM (inactive) | GI50 (ACHN): > 100 µM (inactive) | GI50 (HCT-116): > 100 µM (inactive) | GI50 (KM12): > 100 µM (inactive) | GI50 (UACC-62): > 100 µM (inactive) | GI50 (HT-29): > 100 µM (inactive) | GI50 (HCC 2998): > 100 µM (inactive) | GI50 (COLO 205): > 100 µM (inactive) | GI50 (NCI/ADR-RES): > 100 µM (inactive) | GI50 (SN12C): > 100 µM (inactive) | GI50 (RPMI-8226): > 100 µM (inactive) | GI50 (MDA-MB-435): > 10 µM (inactive) | GI50 (SK-OV-3): 54.5 µM (inactive) | GI50 (HOP-92): 24.6 µM (inactive) | GI50 (SF-539): > 100 µM (inactive) | GI50 (TK-10): > 100 µM (inactive) | GI50 (SF-268): > 100 µM (inactive) | GI50 (MDA-N): > 100 µM (inactive) | GI50 (MDA-MB-231): 21.7 µM (inactive) | GI50 (MOLT-4): > 100 µM (inactive) | GI50 (NCI-H460): > 100 µM (inactive) | GI50 (SK-MEL-28): > 100 µM (inactive) | GI50 (OVCAR-3): > 100 µM (inactive) | GI50 (SNB-19): > 100 µM (inactive) | GI50 (UO-31): > 100 µM (inactive) | GI50 (RXF 393): 62.5 µM (inactive) | GI50 (OVCAR-5): > 100 µM (inactive) | GI50 (SR): > 100 µM (inactive)

CC(C)(C)OC(=O)CC(NC(=O)OC(C)(C)C)C(=O)Oc1ccc([N+](=O)[O-])cc1 (configuration not stated)
GI50 (SNB-75): > 100 µM (inactive) | GI50 (M14): > 100 µM (inactive) | GI50 (T47D): 89.5 µM (inactive) | GI50 (786-0): > 100 µM (inactive) | GI50 (U-251): > 100 µM (inactive) | GI50 (NCI-H23): > 100 µM (inactive) | GI50 (Malme-3M): > 100 µM (inactive) | GI50 (A549): > 100 µM (inactive) | GI50 (HOP-62): > 100 µM (inactive) | GI50 (SF-295): > 100 µM (inactive) | GI50 (DU-145): > 100 µM (inactive) | GI50 (IGROV-1): > 100 µM (inactive) | GI50 (Hs-578T): > 100 µM (inactive) | GI50 (UACC-257): > 100 µM (inactive) | GI50 (PC-3): > 100 µM (inactive) | GI50 (CCRF-CEM): > 100 µM (inactive) | GI50 (BT-549): > 100 µM (inactive) | GI50 (CAKI-1): > 100 µM (inactive) | GI50 (K562): > 100 µM (inactive) | GI50 (SK-MEL-5): 78.7 µM (inactive) | GI50 (MCF7): > 100 µM (inactive) | GI50 (NCI-H226): > 100 µM (inactive) | GI50 (OVCAR-4): > 100 µM (inactive) | GI50 (LOX IMVI): > 100 µM (inactive) | GI50 (SW-620): > 100 µM (inactive) | GI50 (EKVX): > 100 µM (inactive) | GI50 (ACHN): > 100 µM (inactive) | GI50 (OVCAR-8): > 100 µM (inactive) | GI50 (HCT-116): > 100 µM (inactive) | GI50 (KM12): > 100 µM (inactive) | GI50 (UACC-62): 11.1 µM (inactive) | GI50 (HCT-15): > 100 µM | GI50 (HT-29): > 100 µM (inactive) | GI50 (COLO 205): > 100 µM (inactive) | GI50 (NCI/ADR-RES): > 100 µM (inactive) | GI50 (SN12C): > 100 µM (inactive) | GI50 (A498): > 100 µM (inactive) | GI50 (RPMI-8226): > 100 µM (inactive) | GI50 (MDA-MB-435): > 100 µM (inactive) | GI50 (SK-OV-3): 29.9 µM (inactive) | GI50 (HOP-92): > 100 µM (inactive) | GI50 (SF-539): > 100 µM (inactive) | GI50 (SK-MEL-2): > 100 µM (inactive) | GI50 (TK-10): > 100 µM (inactive) | GI50 (SF-268): 3.2 µM (inactive) | GI50 (MDA-N): > 100 µM (inactive) | GI50 (MDA-MB-231): > 100 µM (inactive) | GI50 (MOLT-4): > 100 µM (inactive) | GI50 (NCI-H460): > 100 µM (inactive) | GI50 (SK-MEL-28): > 100 µM (inactive) | GI50 (OVCAR-3): > 100 µM (inactive) | GI50 (SNB-19): > 100 µM (inactive) | GI50 (UO-31): > 100 µM (inactive) | GI50 (RXF 393): > 100 µM (inactive) | GI50 (OVCAR-5): > 100 µM (inactive) | GI50 (NCI-H522): > 100 µM (inactive)
